Experimental data: PMC11044151, “Development of Half-Sandwich Ru, Os, Rh, and Ir Complexes Bearing the Pyridine-2-ylmethanimine Bidentate Ligand Derived from 7-Chloroquinazolin-4(3H)-one with Enhanced Antiproliferative Activity” (ACS Omega, 2024)

Key:
SW620 cells = test: ROS generation, dihydrorhodamine 123 oxidation assay; assay type: cell-based, human; conditions: SW620, 1 μM compound, 4 h, DHR123 with 10 μM verapamil; vs control or (R)- and (S)-1
From the text: Metal complexes often induce reactive oxygen species (ROS) generation in cells,[51] which may increase their cytotoxic activity compared to purely organic molecules. To study the impact of the synthesized compounds on ROS production, we have measured the ROS generation in SW620 cells by the dihydrorhodamine 123 (DHR123) oxidation assay (Figure 9). However, there is no correlation between the antiproliferative potential and the ability of a compound to generate ROS.
Dihydrorhodamine 123 oxidation was used as an indicator of intracellular ROS production. For this purpose, SW620 cells were seeded in 6-well plates at a density of 10^5 cells per well. The cells were left overnight (time needed for them to attach to the surface). Then, 1 μM tested compounds were added along with 1 μM DHR123. Additionally, since DHR123 is a substrate of ABCB1 (which may interfere in this assay), 10 μM verapamil, an inhibitor of this protein, was added. The cells were cultured for an additional 4 h at 37 °C, and then the cells were harvested by trypsinization, resuspended in a complete medium, and analyzed using a LSRII flow cytometer (Becton Dickinson) in a FITC channel (530/30 nm). The results are presented as a percentage of control (median fluorescence in the presence of DMSO).

[1] = Stability study in the presence of L-histidine (UV-vis, HPLC-MS); assay type: physicochemical; conditions: 20 μM complex, 0.2 mM L-histidine in water, 0.5 vol % DMSO, followed over 2 h
From the text: For biological studies, compounds are commonly administered as dimethyl sulfoxide (DMSO) solution to cells cultured in a specific medium such as Dulbecco’s modified Eagle’s medium (DMEM). DMEM consists of numerous organic compounds which may act as ligands for organometallics. Therefore, it is important to know how the compounds behave in such conditions. The two most prominent components of DMEM which may coordinate to half-sandwich complexes are L-cysteine and L-histidine. Both of those amino acids are present in DMEM at 0.2 mM concentration, so we studied how the complexes interact with them using UV–vis spectroscopy and HPLC-MS analysis. The DMSO solutions of complexes were added to the aqueous solution of L-cysteine or L-histidine to achieve a complex concentration of 20 μM while keeping the DMSO concentration at 0.5 vol %. […] HPLC-MS analysis confirmed the formation of an additional peak at τ = 0.95 min with m/z 714 assigned to [M-Cl-PF6 + HCOOH]^+; additionally, the intensity of peaks corresponding to 3c is lower (Figure S26). […] The intensity of absorbance peaks at λ = 287 and λ = 372 nm in the presence of cysteine is decreasing, while the intensity of peaks at λ = 304 and λ = 318 nm is almost intact.
The stability of 3a–d was studied in the presence of L-cysteine or L-histidine. 3a–d were dissolved in DMSO and added to 0.2 mM aqueous solution of L-cysteine or L-histidine to achieve the complex concentration of 20 μM while keeping the DMSO concentration at 0.5 vol %. UV–vis spectra were recorded over 2 h with 10 min intervals.

| Compound | ROS generation (in words) (SW620 cells) | reaction with L-histidine (stability) [1] |
| --- | --- | --- |
| CC(C)[C@@H](N=Cc1ccccn1)c1nc2cc(Cl)ccc2c(=O)n1Cc1ccccc1.Cc1ccc(C(C)C)cc1.F[P-](F)(F)(F)(F)F.[Cl-].[Ru+2] [Compound 3a, [(cym)Ru((R)-2)Cl]PF6] | increase the level of ROS | neither ruthenium 3a nor the osmium complex 3b reacts with those amino acids within 2 h |
| CC(C)[C@@H](N=Cc1ccccn1)c1nc2cc(Cl)ccc2c(=O)n1Cc1ccccc1.Cc1ccc(C(C)C)cc1.F[P-](F)(F)(F)(F)F.[Cl-].[Os+2] [Compound 3b, [(cym)Os((R)-2)Cl]PF6] | – | neither ruthenium 3a nor the osmium complex 3b reacts with those amino acids within 2 h |
| CC(C)[C@@H](N=Cc1ccccn1)c1nc2cc(Cl)ccc2c(=O)n1Cc1ccccc1.Cc1c(C)c(C)[c-](C)c1C.F[P-](F)(F)(F)(F)F.[Cl-].[Rh+3] [Compound 3c, [(Cp*)Rh((R)-2)Cl]PF6] | – | A similar effect is observed in the case of L-histidine |
| CC(C)[C@@H](N=Cc1ccccn1)c1nc2cc(Cl)ccc2c(=O)n1Cc1ccccc1.Cc1c(C)c(C)[c-](C)c1C.F[P-](F)(F)(F)(F)F.[Cl-].[Ir+3] [Compound 3d, [(Cp*)Ir((R)-2)Cl]PF6] | – | reacts with both L-cysteine and L-histidine (Figure 6) in 40 min |
